Results from patent US20230271950A1, “ANTIBACTERIAL PICOLINAMIDE COMPOUNDS” (University of Notre Dame Du Lac, priority 2020, published 2023).
Values after ≈ are worked out from the molar mass of the structure shown. Read-outs that look alike come from different tables or passages of the source.

Legend:
[1] = Pharmacokinetics study in mice (plasma and feces levels); assay type: in vivo; conditions: for concentration at 8 h: female, CD-1, mouse
Procedure: Pharmacokinetics (PK) study. Mice (n=2 per time point) were given a single 100 μL solution of 5 mg/mL of compound 1 (equivalent to 20 mg/kg). Terminal blood was collected in heparinized syringes by cardiac puncture at 30 min, 1 h, 2 h, 4 h, and 8 h. The two mice at the 8-h time point were place in metabolism cages for collection of feces. Compound 1 was dissolved in 5% DMSO/95% water with 96 mg/mL of sodium bicarbonate. Blood was centrifuged at 1,000 g for 20 min at 4° C. and plasma was separated and stored at −80° C. until analysis. A 45-μL aliquot of plasma was mixed with 5 μL of H2O:ACN (1:1) and was quenched with 100 μL of acetonitrile containing 20 μM of internal standard (compound 10). The sample was centrifuged at 21,000 g for 15 min at 4° C. to precipitate the proteins, and the resulting supernatant was analyzed by UPLC-TQD detector using multiple-reaction monitoring (MRM). Calibration curves for compound 1 were prepared from 0 to 102.4 μM using a control mouse plasma (50 μL). Peak area ratios relative to internal standard and linear regression was used from which the concentrations in plasma samples from the PK study were determined.
An average of 250 mg of feces were collected at 8 h from two mice, and subsequently homogenized with 6 times the feces volume (1,500 μL of H2O:ACN 1:1) using a Bullet Blender (Next Advance, Inc., Troy, N.Y.). The homogenate was centrifuged at 21,000 g for 5 min. The fecal supernatant (72 μL) was mixed with 8 μL of a solution of H2O:ACN (1:1) and 40 μL of 50 μM of the internal standard in ACN with 0.5% formic acid. A calibration curve was prepared from 0 μM to 102.4 μM in control mouse feces. Plasma and feces were analyzed on a Waters TQD tandem quadrupole detector (Waters Corporation, Milford, Mass.) using a YMC-Triart C18 100 mm×2.0 mm column (3μ, YMC Co. Ltd, Kyoto, Japan). The chromatographic conditions consisted of elution with 30% H2O/70% ACN containing 0.10% formic acid for 5 min at a flow rate 0.5 mL/min. Mass Spectrometry acquisition was performed in the positive electrospray ionization mode with MRM. The capillary, cone, extractor and RF lens voltages were set at 2.8 kV, 40 V, 1 V and 0.1 V, respectively. The desolvation and cone gas (nitrogen) flow rates were 650 L/h and 50 L/h, respectively. The source temperature was set at 150° C. The desolvation temperature was 350° C. The MRM transitions used were 459.4→254.0 for compound 1, and 294.8→133.5 for the internal standard.
(§1) Animals. Female C57BL/6 mice weighing 18-20 g and 6-8 weeks of age were used for the efficacy study (Jackson, Bar Harbor, Me.). Female CD-1 mice (24-31 g and 7-8 weeks of age) were used for the PK study. They were housed in groups of five mice in sterile polycarbonate shoeboxes with bedding consisting of ¼-inch corncob (The Andersons Ind., Maumee, Ohio) and Alpha-Dri (Shepherd Specialty Papers, Inc., Richland, Mich.). Mice were maintained on a 12-h light/dark cycle at 72° F. and were given Teklad 2918 irradiated extruded rodent diet and water ad libitum. All procedures were performed in accordance with and approved by the University of Notre Dame Institutional Animal Care and Use Committee.
Pharmacokinetics (PK) Studies. Compounds 4, 87, 107, and 108 were dissolved in 10% DMSO, 25% propylene glycol, 15% Tween 80 and 50% water at concentrations of 5 mg/mL or 10 mg/mL. Compound 116 was dissolved in 5% DMSO, 95% water with 96 mg/mL of sodium bicarbonate. Mice (n=2 per time point) were given a single 100 μL oral gavage of the test compound (equivalent to either 10 mg/kg and/or 20 mg/kg), and terminal blood was collected in heparinized syringes by cardiac puncture at 30 min, 1 h, 2 h, 4 h, and 8 h. An average of 250 mg of feces were collected after 8 h from two mice housed in metabolism cages in each group for further analysis. Blood was centrifuged at 1000 g for 2 min at 4° C. to obtain plasma. Plasma and fecal samples were stored at −80° C. until analysis. […]

[2] = test system: stationary-phase C. difficile; assay: Time-kill assay, stationary-phase C. difficile; assay type: cell-based, Clostridioides difficile; conditions: 8×, 16×, and 32×MIC
Procedure: Time-kill assay. […] A control tube without antibiotic was also included. At intervals of 4, 8, and 24 h, 100-μL aliquots of the cultures were plated onto pre-reduced brain heart infusion broth agar media for colony counts. […] The experiment was done in triplicate.

[3] = test system: C. difficile strain ATCC43255; assay: Serial passage for development of resistance; assay type: cell-based, Clostridioides difficile; conditions: for increase of MIC on serial passage: C. difficile ATCC43255, 25 passages; for MIC: Clostridioides difficile
C. difficile ATCC43255 = assay: Scanning-electron microscopy of C. difficile vegetative cells; assay type: cell-based, Clostridioides difficile; conditions: compound 1 at 4× to 32×MIC; VAN at 4×MIC
Procedure: FIG. 2. Mechanism of action of compound 1. (A) Macromolecular biosynthesis assays: Compound 1 was incubated with C. difficile ATCC43255 at 0.5×MIC. […] The incubation time was 60 min for DNA, 120 min for peptidoglycan synthesis and RNA, and 180 min for protein synthesis. (B-G) Imaging of C. difficile […] vegetative cells (logarithmic growth) by scanning electron microscopy.
Scanning-electron microscopy. […] Following incubation, the cells were washed with PBS (3×) and applied onto poly-1-lysine (Santa Cruz Biotechnology, Dallas, Tex.) coated microglass coverslips (Electron Microscopy Sciences, Hatfield, Pa.) and incubated for 15 min. The cells were fixed for 1 h with 2% glutaraldehyde, followed by a wash (3×) with sodium cacodylate buffer at pH 7.4. The samples were fixed with 1% osmium tetroxide for 1 h and rinsed (3×) in the buffer. The samples were then put through a graded ethanol series for dehydration, followed by critical point drying. The samples were then mounted on SEM stubs and sputter-coated with iridium. Microscopy and imaging were performed on a Magellan 400 XHR instrument (FEI, Hillsboro, Oreg.).

CDI = conditions: patients treated with the antibiotic; cited from earlier work
C. difficile ATCC 43255 = assay: Mouse model of recurrent C. difficile infection; assay type: in vivo, mice; conditions: VAN 50 mg/kg oral once a day for 5 days; days 10-15
Procedure: Next, compound 1 was evaluated in a mouse model of recurrent CDI.
as §1
C. difficile infection model. The recurrent C. difficile infection model reported by Chen et al. was used (Gastroenterology 2008, 135, 1984). […] Subsequently, mice were given a 10 mg/kg intraperitoneal injection of clindamycin. The following day, the mice were infected intragastrically with 10^4 CFU of C. difficile ATCC 43255. […] Body weights and survival were recorded for 25 days. The study was repeated a second time.

[4] = 20 mg/kg single oral administration
[5] = single oral gavage, dose 20 mg · kg^−1, feces collected after 8 h, read-out: Drug concentration in fecal samples (mg kg^−1 feces)

| SMILES | Conc. feces/MIC ([1]; dose 20 mg · kg^−1) | reduction of C. difficile stationary-phase growth [2] [log10] | increase of MIC on serial passage [3] [fold] | cell surface by scanning-electron microscopy (C. difficile ATCC43255) | concentration at 8 h [1, 5] [ng/g] | Recurrence of CDI (CDI) [%] | other results |
| --- | --- | --- | --- | --- | --- | --- | --- |
| O=C(O)c1ccc2oc(NC(=O)c3cc(Oc4cccc(OC(F)(F)F)c4)ccn3)nc2c1 [Compound 1, Sodium 2-(4-(3-(trifluoromethoxy)phenoxy)picolinamido)benzo[d]oxazole-5-carboxylate] | 108 | 2 | 8 | bleb formation on the surface was evident |  |  | Concentrations in plasma [1, 4]: non-quantifiable; levels in feces higher than the MIC for C. difficile ATCC 43255 [1, 4]: > 100 fold; concentration at 8 h ([1]; 20 mg/kg single oral administration, feces collected at 8 h, read-out: levels in feces): 13000 ng/g; Drug concentration in fecal samples (mg kg^−1 feces) ([1]; single oral gavage, dose 20 mg · kg^−1, feces collected after 8 h): 13 mg/kg; MIC ([3]; ATCC43255, read-out: MIC after serial passage): 1 µg/mL; MIC ([3]; ATCC43255, read-out: starting MIC in serial passage): 0.125 µg/mL |
| O=C(Nc1ncco1)c1ccnc(-c2ccc(Cl)c(Cl)c2)c1 [Compound 4, 2-(3,4-Dichlorophenyl)-N-(oxazol-2-yl)isonicotinamide] | 11 |  |  |  | 2800 |  |  |
| O=C(Nc1ncco1)c1cc(-c2ccc(Cl)c(Cl)c2)ccn1 [Compound 87, 4-(3,4-Dichlorophenyl)-N-(oxazol-2-yl)picolinamide] |  |  |  |  |  |  | Conc. feces/MIC ([1]; dose 10 mg · kg^−1): 6.6; concentration at 8 h ([1]; single oral gavage, dose 10 mg · kg^−1, feces collected after 8 h, read-out: Drug concentration in fecal samples (mg kg^−1 feces)): 790 ng/g |
| O=C(Nc1ncco1)c1cc(Oc2cccc(OC(F)(F)F)c2)ccn1 [Compound 108, N-(Oxazol-2-yl)-4-(3-(trifluoromethoxy)phenoxy)picolinamide] | 49 |  |  |  | 49000 |  |  |
| CCc1c(Cl)c(O)c(Cl)c(O)c1C(=O)O[C@H]1[C@H](O)[C@H](OC)[C@H](OC/C2=C\C=C\C[C@H](O)/C(C)=C/[C@H](CC)[C@@H](O[C@@H]3OC(C)(C)[C@@H](OC(=O)C(C)C)[C@H](O)[C@@H]3O)/C(C)=C/C(C)=C/C[C@@H]([C@@H](C)O)OC2=O)O[C@@H]1C [FDX, fidaxomicin, reference compound] |  |  |  |  |  | 15 |  |
| CN[C@H](CC(C)C)C(=O)N[C@H]1C(=O)N[C@@H](CC(N)=O)C(=O)N[C@H]2C(=O)N[C@H]3C(=O)N[C@H](C(=O)N[C@H](C(=O)O)c4cc(O)cc(O)c4-c4cc3ccc4O)[C@H](O)c3ccc(c(Cl)c3)Oc3cc2cc(c3O[C@@H]2O[C@H](CO)[C@@H](O)[C@H](O)[C@H]2O[C@H]2C[C@](C)(N)[C@H](O)[C@H](C)O2)Oc2ccc(cc2Cl)[C@H]1O [VAN, vancomycin, reference compound] |  | 1 | 8 | altered |  | 25 | MIC ([3]; C. difficile ATCC43255, sub-MIC concentrations, 25 passages, read-out: MIC after serial passage): 4 µg/mL (≈ 2.76 µM); recurrence of infection (loss of body weight) (C. difficile ATCC 43255): recurrence of infection is observed |
